Results reported in patent US4238620A, “Dibenz[b,f]oxepin and dibenzo[b,f]thiepin derivatives, process for preparation thereof, method of using the same, and compositions thereof” (priority 1978, dated 1980).
“Also recorded” adds a separate entry of the source.

Tests used:
[1] = system: Acetic acid (AcOH)-induced writhing in rats; experiment: Acetic acid (AcOH)-induced writhing in rats (ACW method), analgesic activity; format: in vivo; details: Rattus norvegicus, po, read-out: Analgesic activity ED50, ACW
Experimental: (§1) TEST 2. ANALGESIC ACTIVITY
(b) Acetic acid (AcOH)-induced writhing in rats (ACW method)
The test was carried out according to the method described in Arzneim. Forsch., 25, 1505 (1975).

[2] = Safety index (UD50/ED50 or MED), separation of activity from ulcerogenicity; format: in vivo; details: for separation of anti-inflammatory, analgesic and antipyretic activities from ulcerogenicity: FIGS. 1 and 2, vs indomethacin
Text: (§2) From these diagrams, the correlation between the pharmacological activity of each compound and its ulcerogenicity and toxicity, i.e. the safety margin of each compound, can be clearly seen. In these Figures, the lines and letters have the following meanings:
(§3) The following conclusions can be drawn from Tables I to III and FIGS. 1 and 2. In the following description, the therapeutic index means LD50 /ED50 (or MED), and the safety index means UD50 /ED50 (or MED). The safety margin of a given compound is broader when it has larger therapeutic and or safety indices.

[3] = format: in vivo; details: for therapeutic index compared with indomethacin: vs indomethacin
Text: In the following description, the therapeutic index means LD50 /ED50 (or MED), and the safety index means UD50 /ED50 (or MED).

[4] = system: Carrageenin-induced hind paw oedema in rats; experiment: Carrageenin-induced hind paw oedema in rats (CAR method), acute inflammation; format: in vivo; details: Rattus norvegicus, po, read-out: Anti-inflammatory activity ED50, acute inflammation, CAR
Experimental: (§4) (1) Effect on acute inflammation:
(a) Carrageenin-induced hind paw oedema in rats (CAR method)
The test was carried out according to the method described in Proc. Soc. Exp. Biol. Med., 111, 544 (1962).

[5] = system: Yeast-induced fever in rats; experiment: Yeast-induced fever in rats (YEF method), antipyretic activity; format: in vivo; details: Rattus norvegicus, po, read-out: Antipyretic activity ED50, YEF
Experimental: TEST 3. ANTIPYRETIC ACTIVITY
Yeast-induced fever in rats (YEF method)
The test was carried out according to the method described in Arzneim. Forsch., 13, 338 (1963).

[6] = system: Felt pellet-induced granuloma formation in rats; experiment: Felt pellet-induced granuloma formation in rats (FGF method), subacute and chronic inflammation; format: in vivo; details: Rattus norvegicus, po, read-out: Minimum Effective Dose, subacute and chronic inflammation, FGF*
Experimental: (§5) (2) Effect on subacute and chronic inflammations:
(b) Felt pellet-induced granuloma formation in rats (FGF method)
The test was carried out according to the method described in J. Amer. Pharm. Assoc., 46, 515 (1957) and Chem. Pharm. Bull., 23, 1446 (1975).

[7] = system: Gastrointestinal ulcer formation in fed rats; experiment: Gastrointestinal ulcer formation in fed rats (ulcerogenicity); format: in vivo
Experimental: (§6) TEST 4. ULCEROGENICITY IN GASTROINTESTINAL TRACT
(§7) Gastrointestinal ulcer formation in fed rats
(§8) The test was carried out according to the method described in Science, 170, 183 (1970).

[8] = as above; format: in vivo; details: rat, in vivo, po, fed rats; read-out: UD50 (50% ulcer forming dose)
Experimental: as §6, §7, §8

[9] = Overall comparison of anti-inflammatory, analgesic and antipyretic activities (Tests 1 to 3); format: in vivo, rats; guinea-pigs; details: for anti-inflammatory, analgesic and antipyretic activities compared with indomethacin: vs indomethacin (compound 3)
Text: as §2, §3

[10] = system: adjuvant-induced arthritis in rats; experiment: Therapeutic activity on adjuvant-induced arthritis in rats (AAT method), subacute and chronic inflammation; format: in vivo; details: Rattus norvegicus, po, read-out: Minimum Effective Dose, subacute and chronic inflammation, AAT*
Experimental: as §5
(a) Therapeutic activity on adjuvant-induced arthritis in rats (AAT method)
The test was carried out according to the method described in Brit. J. Pharmacol., 21, 127 (1963) and Japan J. Pharmacol., 23, 58 (1973).

in vivo [11] = details: rat, po, rats, once daily for 5 days, mortality on 6th day, read-out: LD50 Repeated
Experimental: (§9) (b) Repeated administrations in rats
(§10) Test compounds were orally administered once daily for 5 days, and LD50 -value was calculated from the mortality on the 6th day.

[12] = system: AgNO3-induced joint pain in rats; experiment: AgNO3-induced joint pain in rats (AGP method), analgesic activity; format: in vivo; details: Rattus norvegicus, po, read-out: Analgesic activity ED50, AGP
Experimental: as §1
(a) AgNO3 -induced joint pain in rats (AGP method)
The test was carried out according to the method described in J. Pharmacol. Expt. Ther., 98, 19 (1950)

rats = experiment: Overall comparison of lethal toxicity (Test 5); format: in vivo; details: for toxicity compared with indomethacin (in words): vs indomethacin
Experimental: (a) Single administration in rats
as §9, §10

[13] = system: Ultraviolet-induced erythema in guinea-pigs; experiment: Ultraviolet-induced erythema in guinea-pigs (UVE method), acute inflammation; format: in vivo; details: Cavia porcellus, po, read-out: Anti-inflammatory activity ED50, acute inflammation, UVE
Experimental: as §4
(b) Ultraviolet-induced erythema in guinea-pigs (UVE method)
The test was carried out according to the method described in Arch. Int. Pharmacodyn. Ther., 116, 261 (1958).

in vivo [14] = details: rat, po, rats, single administration, 7th day, read-out: LD50 Single
[15] = cited from earlier work
[16] = cited from earlier work; remark: listed apart in the source

SMILES | ED50 [1] [mg/kg] | separation of anti-inflammatory, analgesic and antipyretic activities from ulcerogenicity [2] | therapeutic index compared with indomethacin [3] | ED50 [4] [mg/kg] | ED50 [5] [mg/kg] | minimal effective dose [6] [mg/kg/day] | TD50 [8] [mg/kg] | anti-inflammatory, analgesic and antipyretic activities compared with indomethacin [9] | minimal effective dose [10] [mg/kg/day] | LD50 at 144 h (in vivo [11]) [mg/kg] | ED50 [12] [mg/kg] | toxicity compared with indomethacin (in words) (rats) | ED50 [13] [mg/kg] | further results
Cc1ccc2c(c1)CC(=O)c1cc(C(C)C(=O)O)ccc1S2 (racemic) [compound C, dl-2-(8-Methyl-10,11-dihydro-11-oxodibenzo[b,f]thiepin-2-yl)propionic acid] | 0.84 | more separated from ulcerogenicity in the gastrointestinal tract than in indomethacin; also recorded: Especially good separation | far larger therapeutic indices than indomethacin | 2.08 | 0.015 | 1 | 2.76 | equivalent or superior to those of indomethacin | < 0.2 | > 12 | 1.41 | far weaker than those of indomethacin | 0.85 | average safety index relative to compound 2 ([2]; UD50/ED50 (or MED), vs compound 2): about 4 times; average therapeutic index relative to compound 2 ([3]; LD50/ED50 (or MED), vs compound 2): more than 5 times; breadth of safety margin compared with compound 2 ([3]; safety margin, vs compound 2): far superior to compound 2; ulcerogenicity relative to compound 2 ([7]; fraction of that of compound 2): about 1/4; pharmacological activities compared with compound 2 ([9]; vs compound 2): comparable or slightly inferior to those of compound 2; toxicity relative to compound 2 (rats; fraction of that of compound 2): less than 1/6
Cc1ccc2c(c1)CC(=O)c1cc(C(C)C(=O)OCCOCCO)ccc1O2 (racemic) [compound E, 2-(2-Hydroxyethoxy)ethyl dl-2-(8-methyl-10,11-dihydro-11-oxodibenz[b,f]oxepin-2-yl)propionate] | 0.27 | more separated from ulcerogenicity in the gastrointestinal tract than in indomethacin; also recorded: Especially good separation | far larger therapeutic indices than indomethacin | 3.61 | 0.055 | 2 | 4.04 | equivalent or superior to those of indomethacin | 0.2 | > 16 | 3.8 | far weaker than those of indomethacin | 1.41 | average safety and therapeutic indices compared with compound A ([3]; safety and therapeutic indices, vs compound A): comparable to those of compound A; breadth of safety margin compared with compound 1 ([3]; safety margin, vs compound 1): better; ulcerogenicity and toxicity compared with compound A ([7]; ulcerogenicity together with toxicity, vs compound A): weaker than those of compound A; pharmacological activities compared with compound 1 ([9]; vs compound 1): equivalent to, or more potent, than those of compound 1; pharmacological activities compared with compound A ([9]; vs compound A): somewhat inferior to those of compound A; LD50 at 168 h (in vivo [14]): 219 mg/kg
O=C(O)Cc1ccc2c(c1)CC(=O)c1ccccc1S2 [10,11-dihydro-10-oxodibenzo[b,f]thiepin-2-acetic acid] |  |  |  |  |  |  |  |  |  |  |  |  |  | anti-inflammatory activity relative to phenylbutazone [15]: 0.4 time; analgesic activity relative to aspirin [16]: equivalent to that of aspirin
